Laboratory results reported in patent US10994015B2, “EGFR proteolysis targeting chimeric molecules and associated methods of use” (Arvinas Operations, Inc., priority 2016, dated 2021).

Legend:
[1] = molecular target: EGFR-wt (MDA-MB-231 or MCF7 or A549 or OVCAR8) (Homo sapiens (Human), UniProt P00533); assay: EGFR protein degradation assay (Western blot); assay type: cell-based; settings: 72 hours, 300 nM to 10 nM
Summary of the method: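 EGFR degradation was assessed by Western blot. Cells expressing the appropriate EGFR were seeded in 6-well plates (300,000 cells per well) and adhered overnight. Media was removed, cells were washed with cold phosphate-buffered saline, scraped into 400 μl Cell Signaling lysis buffer plus protease inhibitor cocktail, and spun once at 10 000 rpm for 10 minutes. After BCA quantification, loading buffer and reducing agent were added. Gels loaded with 10 μg protein ran at 165V for 2 hours, and bands were visualized by chemiluminescence.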

EGFR Exon20NPG = EGFR Exon20NPG (Homo sapiens (Human), UniProt P00533, INS770NPG); assay: TR-FRET assay for ERBB kinases; assay type: biochemical; settings: geometric mean if measured more than once
Summary of the method: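 Phosphorylation of fluorescein-labeled poly-GluTyr read as TR-FRET using Tb-pY20 antibody after EDTA stop, with 340 nm excitation. Kinase reaction ran 10 min at room temperature following 10 min compound pre-incubation; substrate mix held 3 mM ATP and 30 µM peptide before addition. Buffer was HEPES pH 7.5.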

EGFR WT = EGFR WT (Homo sapiens (Human), UniProt P00533); assay: TR-FRET assay for ERBB kinases; assay type: biochemical; settings: geometric mean if measured more than once
Summary of the method: (§1)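 HEPES pH 7.5 buffer with 10 mM MgCl2 and 1 mM DTT; 10 min enzyme–compound pre-incubation. A 10 min room-temperature reaction was initiated by a mix carrying 3 mM ATP, stopped with EDTA, and detected by time-resolved FRET at 340 nm excitation.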

EGFR L858R/T790M = EGFR L858R/T790M (Homo sapiens (Human), UniProt P00533, L858R/T790M); assay: TR-FRET assay for ERBB kinases; assay type: biochemical; settings: geometric mean if measured more than once
Summary of the method: as §1

EGFR L858R/T790M/C797S = EGFR L858R/T790M/C797S (Homo sapiens (Human), UniProt P00533, C797S/L858R/T790M); assay: TR-FRET assay for ERBB kinases; assay type: biochemical; settings: geometric mean if measured more than once
Summary of the method: as §1

[2] = molecular target: EGFR L858R/T790M double mutant (H1975) (Homo sapiens (Human), UniProt P00533, L858R/T790M); assay: EGFR protein degradation assay (Western blot); assay type: cell-based; settings: 72 hours, 300 nM to 10 nM
Summary of the method: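 EGFR protein levels were measured by immunoblotting. Lysate protein was quantified by BCA, and 10 μg per sample was separated by SDS/PAGE at 165V for 2 hours and transferred to PVDF. Membranes were blocked in TBS-T with 5% milk for 1 hour, probed overnight at 4° C with EGFR and tubulin antibodies, then secondary antibody for 1 hour, and detected by ECL on a Chemidoc.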

[3] = molecular target: EGFR L858R/T790M/C797S triple mutant (H520*) (Homo sapiens (Human), UniProt P00533, C797S/L858R/T790M); assay: EGFR protein degradation assay (Western blot); assay type: cell-based; settings: 72 hours, 300 nM to 10 nM
Summary of the method: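 EGFR loss in the triple-mutant line measured by immunoblot: clarified lysates normalised by BCA, run on 4-12% Bis-Tris gels, blotted to PVDF, probed with HRP anti-rabbit secondary. Before lysis, cells were dosed from 1, 0.3, 0.1, 0.03 and 0.01 mM DMSO stocks (not final concentrations) after overnight culture at 37° C.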

EGFR L858R/T790M double mutant (H1975), sequence (P00533 25-1210 T790M/L858R): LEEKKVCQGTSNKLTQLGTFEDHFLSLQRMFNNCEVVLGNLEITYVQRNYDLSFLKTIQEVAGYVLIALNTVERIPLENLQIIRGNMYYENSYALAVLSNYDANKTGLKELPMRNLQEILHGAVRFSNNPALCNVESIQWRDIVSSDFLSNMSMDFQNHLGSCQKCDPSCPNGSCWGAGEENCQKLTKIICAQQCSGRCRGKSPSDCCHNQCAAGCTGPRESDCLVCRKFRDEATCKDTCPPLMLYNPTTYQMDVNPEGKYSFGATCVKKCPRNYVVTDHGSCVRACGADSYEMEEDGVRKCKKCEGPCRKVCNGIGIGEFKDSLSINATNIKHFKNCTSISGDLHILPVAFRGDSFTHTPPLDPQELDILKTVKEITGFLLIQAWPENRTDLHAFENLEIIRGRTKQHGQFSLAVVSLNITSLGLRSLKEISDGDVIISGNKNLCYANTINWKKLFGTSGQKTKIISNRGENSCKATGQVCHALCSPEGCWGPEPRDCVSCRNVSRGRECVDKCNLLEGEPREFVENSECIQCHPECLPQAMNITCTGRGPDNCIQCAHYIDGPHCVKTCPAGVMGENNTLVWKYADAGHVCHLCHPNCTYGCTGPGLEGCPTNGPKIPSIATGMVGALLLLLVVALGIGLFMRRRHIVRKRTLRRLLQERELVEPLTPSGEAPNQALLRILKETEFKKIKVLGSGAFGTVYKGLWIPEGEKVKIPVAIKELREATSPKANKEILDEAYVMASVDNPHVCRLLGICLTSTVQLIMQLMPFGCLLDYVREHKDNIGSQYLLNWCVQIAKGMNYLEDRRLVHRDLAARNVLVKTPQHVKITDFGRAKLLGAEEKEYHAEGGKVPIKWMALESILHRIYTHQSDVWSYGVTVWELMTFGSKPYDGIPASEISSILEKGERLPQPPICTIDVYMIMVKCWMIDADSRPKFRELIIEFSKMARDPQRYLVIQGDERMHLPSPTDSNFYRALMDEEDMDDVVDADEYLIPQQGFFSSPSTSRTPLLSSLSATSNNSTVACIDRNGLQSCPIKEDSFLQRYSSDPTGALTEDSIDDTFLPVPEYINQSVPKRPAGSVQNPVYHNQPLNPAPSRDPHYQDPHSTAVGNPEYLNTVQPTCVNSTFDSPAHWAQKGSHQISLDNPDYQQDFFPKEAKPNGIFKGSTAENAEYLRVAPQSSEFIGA
EGFR L858R/T790M, sequence (P00533 25-1210 T790M/L858R): as above
EGFR L858R/T790M/C797S, sequence (P00533 25-1210 T790M/C797S/L858R): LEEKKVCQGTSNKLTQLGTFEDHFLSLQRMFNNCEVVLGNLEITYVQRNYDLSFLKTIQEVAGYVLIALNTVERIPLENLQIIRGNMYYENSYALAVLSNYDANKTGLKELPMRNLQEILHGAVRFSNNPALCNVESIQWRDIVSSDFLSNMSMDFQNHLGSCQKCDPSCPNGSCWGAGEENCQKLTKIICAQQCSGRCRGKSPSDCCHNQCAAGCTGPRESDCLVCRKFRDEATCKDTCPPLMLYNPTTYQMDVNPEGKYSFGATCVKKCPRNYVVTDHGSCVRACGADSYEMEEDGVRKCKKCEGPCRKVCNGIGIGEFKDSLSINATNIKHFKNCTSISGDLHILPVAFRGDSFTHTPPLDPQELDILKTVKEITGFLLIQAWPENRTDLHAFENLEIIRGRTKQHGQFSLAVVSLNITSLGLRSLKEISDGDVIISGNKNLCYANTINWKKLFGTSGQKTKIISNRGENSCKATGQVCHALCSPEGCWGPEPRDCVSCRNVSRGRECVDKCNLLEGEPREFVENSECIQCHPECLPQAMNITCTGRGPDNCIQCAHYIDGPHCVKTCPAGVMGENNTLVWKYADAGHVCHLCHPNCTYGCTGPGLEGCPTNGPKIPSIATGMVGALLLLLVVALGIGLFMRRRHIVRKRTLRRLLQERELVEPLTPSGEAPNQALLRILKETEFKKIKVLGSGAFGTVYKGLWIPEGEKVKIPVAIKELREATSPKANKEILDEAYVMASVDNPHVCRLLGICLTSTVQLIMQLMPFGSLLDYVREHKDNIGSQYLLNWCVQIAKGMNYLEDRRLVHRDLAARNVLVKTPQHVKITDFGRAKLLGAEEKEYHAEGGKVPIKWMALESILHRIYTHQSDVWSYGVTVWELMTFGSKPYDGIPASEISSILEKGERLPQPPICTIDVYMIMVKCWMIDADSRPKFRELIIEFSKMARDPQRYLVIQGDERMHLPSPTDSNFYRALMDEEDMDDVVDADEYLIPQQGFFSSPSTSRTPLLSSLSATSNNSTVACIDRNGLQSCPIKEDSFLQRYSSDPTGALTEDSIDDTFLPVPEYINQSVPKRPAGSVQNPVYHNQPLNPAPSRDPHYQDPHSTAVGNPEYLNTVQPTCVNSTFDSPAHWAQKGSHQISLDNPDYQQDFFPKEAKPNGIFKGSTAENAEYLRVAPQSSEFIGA
EGFR L858R/T790M/C797S triple mutant (H520*), sequence (P00533 25-1210 T790M/C797S/L858R): as above

Row | SMILES | EGFR protein remaining, EGFR-wt [1] | IC50 (EGFR Exon20NPG) [µM] | IC50 (EGFR WT) [nM] | IC50 (EGFR L858R/T790M) [µM] | IC50 (EGFR L858R/T790M/C797S) [nM] | EGFR protein remaining, EGFR L858R/T790M double mutant [2] | EGFR protein remaining, EGFR L858R/T790M/C797S triple mutant [3]
1 | COc1cc2c(Oc3ccc(N(C(=O)C4(C(N)=O)CC4)c4ccc(F)cc4)cc3F)ccnc2cc1OCCCOCCCOCCC(=O)N[C@H](C(=O)N1C[C@@H](O)C[C@H]1C(=O)NCc1ccc(-c2scnc2C)cc1)C(C)(C)C [Example 351, N-(3-Fluoro-4-((7-(3-(3-(3-(((S)-1-((2S,4S)-4-hydroxy-2-((4-(4-methylthiazol-5-yl)benzyl)carbamoyl)-pyrrolidin-1-yl)-3,3-dimethyl-1-oxobutan-2-yl)amino)-3-oxopropoxy)propoxy)propoxy)-6-methoxyquinolin-4-yl)oxy)phenyl)-N-(4-fluorophenyl)cyclopropane-1,1-dicarboxamide] | C (>80% EGFR protein remaining after 72 hours of incubation with the test compound at a concentration of 300 nM) | – | – | – | – | – | –
2 | Cc1ncsc1-c1ccc(CNC(=O)[C@@H]2C[C@@H](O)CN2C(=O)[C@@H](NC(=O)COCCOCCOCCOc2ccc(-c3ccc4ncnc(Nc5ccc(OCc6cccc(F)c6)c(Cl)c5)c4c3)cc2)C(C)(C)C)cc1 [Example 99, (2S,4R)-1-((S)-2-(tert-Butyl)-14-(4-(4-((3-chloro-4-((3-fluorobenzyl)oxy)phenyl)amino)quinazolin-6-yl)phenoxy)-4-oxo-6,9,12-trioxa-3-azatetradecanoyl)-4-hydroxy-N-(4-(4-methylthiazol-5-yl)benzyl)pyrrolidine-2-carboxamide] | A (≤50% EGFR protein remaining after 72 hours of incubation with the test compound at a concentration between 300 nM and 10 nM) | – | – | – | – | – | –
3 | Cc1ncsc1-c1ccc(CNC(=O)[C@H]2C[C@H](O)CN2C(=O)[C@@H](NC(=O)COCCOCCOc2ccc(-c3ccc4ncnc(Nc5ccc(OCc6cccc(F)c6)c(Cl)c5)c4c3)cc2)C(C)(C)C)cc1 [Example 98, (2R,4S)-1-((S)-2-(2-(2-(2-(4-(4-((3-Chloro-4-((3-fluorobenzyl)oxy)phenyl)amino)quinazolin-6-yl)phenoxy)ethoxy)ethoxy)acetamido)-3,3-dimethylbutanoyl)-4-hydroxy-N-(4-(4-methylthiazol-5-yl)benzyl)pyrrolidine-2-carboxamide] | C (>80% EGFR protein remaining after 72 hours of incubation with the test compound at a concentration of 300 nM) | – | – | – | – | – | –
4 | Cc1ncsc1-c1ccc([C@H](C)NC(=O)[C@H]2C[C@H](O)CN2C(=O)[C@@H](NC(=O)COCCOCCOCCOCCOCCOCC#Cc2cccc3c2C(=O)N([C@@H](C(=O)Nc2nccs2)c2cc(F)ccc2O)C3)C(C)(C)C)cc1 [compound 275] | C (>80% EGFR protein remaining after 72 hours of incubation with the test compound at a concentration of 300 nM) | 9.1 | 660 | 0.88 | 69 | C (>80% EGFR protein remaining after 72 hours of incubation with the test compound at a concentration of 300 nM) | B (≤80% and >50% EGFR protein remaining after 72 hours of incubation with the test compound at a concentration between 300 nM and 10 nM)
5 | Cc1ncsc1-c1ccc(CNC(=O)[C@@H]2C[C@@H](O)CN2C(=O)[C@@H](NC(=O)COCCOCCOCCOCC#Cc2cccc3c2C(=O)N(C(C(=O)Nc2nccs2)c2cc(F)ccc2O)C3)C(C)(C)C)cc1 (some centres unmarked) [compound 254] | – | 5.7 | 1100 | 1 | 100 | C (>80% EGFR protein remaining after 72 hours of incubation with the test compound at a concentration of 300 nM) | C (>80% EGFR protein remaining after 72 hours of incubation with the test compound at a concentration of 300 nM)
6 | Cc1ncsc1-c1ccc(CNC(=O)[C@@H]2C[C@H](O)CN2C(=O)[C@@H](NC(=O)COCCOCCOCCOc2ccc(-c3ccc4ncnc(Nc5ccc(OCc6cccc(F)c6)c(Cl)c5)c4c3)cc2)C(C)(C)C)cc1 [Example 100, (2S,4S)-1-((S)-2-(tert-Butyl)-14-(4-(4-((3-chloro-4-((3-fluorobenzyl)oxy)phenyl)amino)quinazolin-6-yl)phenoxy)-4-oxo-6,9,12-trioxa-3-azatetradecanoyl)-4-hydroxy-N-(4-(4-methylthiazol-5-yl)benzyl)pyrrolidine-2-carboxamide] | C (>80% EGFR protein remaining after 72 hours of incubation with the test compound at a concentration of 300 nM) | – | – | – | – | – | –
7 | O=C1CCC(N2C(=O)c3cccc(NCCOCCOCCOCCOCC#Cc4cccc5c4C(=O)N([C@@H](C(=O)Nc4nccs4)c4cc(F)ccc4O)C5)c3C2=O)C(=O)N1 (some centres unmarked) [compound 266] | – | > 30 | 10000 | > 30 | 2600 | C (>80% EGFR protein remaining after 72 hours of incubation with the test compound at a concentration of 300 nM) | C (>80% EGFR protein remaining after 72 hours of incubation with the test compound at a concentration of 300 nM)
8 | O=C1CCC(N2C(=O)c3cccc(NCCOCCOCCOCCOCCOCC#Cc4cccc5c4C(=O)N([C@@H](C(=O)Nc4nccs4)c4cc(F)ccc4O)C5)c3C2=O)C(=O)N1 (some centres unmarked) [compound 267] | – | 30 | 30000 | 30 | 1400 | C (>80% EGFR protein remaining after 72 hours of incubation with the test compound at a concentration of 300 nM) | C (>80% EGFR protein remaining after 72 hours of incubation with the test compound at a concentration of 300 nM)
9 | Cc1ncsc1-c1ccc(CNC(=O)[C@@H]2C[C@@H](O)CN2C(=O)[C@@H](NC(=O)COCCOCCOCCOCCOCc2ccc(-c3ccc4ncnc(Nc5ccc(OCc6cccc(F)c6)c(Cl)c5)c4c3)o2)C(C)(C)C)cc1 [Example 320, (2S,4R)-1-((S)-18-(tert-butyl)-1-(5-(4-((3-chloro-4-((3-fluorobenzyl)oxy)phenyl)amino)quinazolin-6-yl)furan-2-yl)-16-oxo-2,5,8,11,14-pentaoxa-17-azanonadecan-19-oyl)-4-hydroxy-N-(4-(4-methylthiazol-5-yl)benzyl)pyrrolidine-2-carboxamide] | A (≤50% EGFR protein remaining after 72 hours of incubation with the test compound at a concentration between 300 nM and 10 nM) | – | – | – | – | – | –
10 | Cc1ncsc1-c1ccc(CNC(=O)[C@@H]2C[C@@H](O)CN2C(=O)[C@H](C(C)C)N2Cc3ccccc3C2=O)c(OCCOCCOCCOCCOCC#Cc2cccc3c2C(=O)N([C@@H](C(=O)Nc2nccs2)c2cc(F)ccc2O)C3)c1 [compound 259] | – | 2.1 | 2100 | 3.1 | 550 | C (>80% EGFR protein remaining after 72 hours of incubation with the test compound at a concentration of 300 nM) | C (>80% EGFR protein remaining after 72 hours of incubation with the test compound at a concentration of 300 nM)
11 | Cc1ncsc1-c1ccc(CNC(=O)[C@@H]2C[C@@H](O)CN2C(=O)[C@H](C(C)C)N2Cc3ccccc3C2=O)c(OCCOCCOCCOCC#Cc2cccc3c2C(=O)N([C@@H](C(=O)Nc2nccs2)c2cc(F)ccc2O)C3)c1 [compound 258] | – | 4.9 | 1700 | 5.9 | 4000 | C (>80% EGFR protein remaining after 72 hours of incubation with the test compound at a concentration of 300 nM) | C (>80% EGFR protein remaining after 72 hours of incubation with the test compound at a concentration of 300 nM)
12 | Cc1ncsc1-c1ccc(CNC(=O)[C@@H]2C[C@@H](O)CN2C(=O)[C@@H](NC(=O)CO[C@H]2C[C@H](Oc3ccc(N4CCN(CCOCc5nc6cnc(Nc7ccnc(-c8cnn(S(=O)(=O)C9CC9)c8)n7)cc6n5C(C)C)CC4)cc3)C2)C(C)(C)C)cc1 [compound 304] | C (>80% EGFR protein remaining after 72 hours of incubation with the test compound at a concentration of 300 nM) | – | > 30000 | 0.092 | 17 | – | A (≤50% EGFR protein remaining after 72 hours of incubation with the test compound at a concentration between 300 nM and 10 nM)
